Source: PubChem BioAssay AID686957 (The Scripps Research Institute Molecular Screening Center, 2013)
Activity calls are given as the source filed them. How the calls were made is not given here.

Biological target: T-cell receptor (TCR)-CD3 interaction, human (TCR alpha chain TRAV4)
Test: potency of TCR-CD3 interaction inhibitors, dose response, biochemical, fluorescence, TAMRA-labeled TCR probe (AID 686957)
Conditions: TCR-CD3 binding

| Compound | IC50 |
| --- | --- |
| O=c1c2ccccc2c(C=Nc2ccccc2O)c(O)n1-c1nccs1 | > 94.1 µM (inactive) |
| COc1cc(/C=N/NC(=O)COc2ccc(Cl)cc2)ccc1OS(=O)(=O)c1ccc(C)cc1 | inactive |
| Cc1cc(C(=O)N/N=C/c2cc(Cl)cc([N+](=O)[O-])c2O)c2ccccc2n1 | > 94.1 µM (inactive) |
| O=C(CSc1nnc(-c2ccccc2O)n1Cc1ccccc1)NNC(=O)c1ccccc1O | > 94.1 µM (inactive) |
| O=C(N/N=C/c1cn(Cc2cccc(F)c2)c2ccccc12)c1cc(O)cc(O)c1 | > 94.1 µM (inactive) |
| COc1ccc(C)cc1NC(=O)NNC(=O)c1cc2ccccc2cc1O | > 94.1 µM (inactive) |
| C/C(=N\OCc1nc2ccccc2c(=O)n1/N=C/c1cc(C)cc([N+](=O)[O-])c1O)c1ccccc1 | > 94.1 µM (inactive) |
| C/C(=N\NC(=O)c1nnn(-c2nonc2N)c1-c1ccccc1)c1ccccc1O | > 94.1 µM (inactive) |
| O=C(NNC(=O)c1ccccc1O)c1ccc(-c2ccc([N+](=O)[O-])cc2)o1 | > 94.1 µM (inactive) |
| O=C(NNC(=O)C1CCN(S(=O)(=O)c2ccccc2)CC1)c1ccccc1O | > 94.1 µM (inactive) |
| O=C(N/N=C/c1cccc([N+](=O)[O-])c1O)c1cccs1 | > 94.1 µM (inactive) |
| O=C(CCN1C(=O)/C(=C\c2ccccc2)SC1=S)NNC(=O)c1ccccc1O | > 94.1 µM (inactive) |
| CN(C(=O)COC(=O)c1cc(-c2ccco2)nc2ccccc12)C1CCS(=O)(=O)C1 (centres undefined) | inactive |
| COc1ccc(C(=O)NNC(=S)NC(=O)c2cccs2)cc1 | > 94 µM (inactive) |
| CC(=O)c1cccc(NC(=O)C(OC(=O)c2cccc(S(=O)(=O)N(C)c3ccccc3)c2)c2ccccc2)c1 (centres undefined) | inactive |
| Cc1nc(S/C(=C/c2ccc(-c3ccc(C(=O)O)cc3)o2)C(=O)O)n[nH]1 | > 94.2 µM (inactive) |
| O=C(N/N=C/c1c(O)n(CCc2ccccc2)c(=O)[nH]c1=O)c1ccccc1O | > 94 µM (inactive) |
| Cc1nc2ccccc2n1CC(=O)c1ccc(O)c(O)c1 | > 94 µM (inactive) |
| CCOc1ccc(C(=O)CCC(=O)NNC(=O)c2ccccc2O)cc1 | > 94.1 µM (inactive) |
| O=C1C=C(NCCc2cc(Br)c(O)c(Br)c2)C(=O)c2ncccc21 | inactive |
| O=C(NNC(=O)c1ccc2ccccc2c1O)NC1CCCCC1 | > 94.1 µM (inactive) |
| CN(CCC#N)C(=O)COC(=O)c1c2c(nc3ccccc13)/C(=C\c1ccco1)CC2 | > 94.1 µM (inactive) |
| CC1(C)CC2CC(C)(CN2S(=O)(=O)c2ccc(C(=O)Nc3cccc(S(=O)(=O)N4CCOCC4)c3)cc2)C1 (centres undefined) | inactive |
| O=C(O)c1ccccc1/C=N/NC(=O)c1cc(-c2ccco2)nc2ccccc12 | > 94.1 µM (inactive) |

| Compound | IC50 |
| --- | --- |
| Cc1ccccc1NC(=O)NNC(=O)c1ccc2ccccc2c1O | > 94.2 µM (inactive) |
| Oc1ccc(-c2cn3c(n2)SCC3)cc1O | inactive |
| O=C(NC(=S)NNC(=O)c1ccccc1O)c1cccnc1 | > 94.1 µM (inactive) |
| C/C(=N\NC(=O)c1c(C)nc2ccccn12)c1ccc(O)cc1O | > 94.1 µM (inactive) |
| O=C(N/N=C/c1cc([N+](=O)[O-])ccc1O)/C(=C\c1cccs1)NC(=O)c1ccccc1 | > 94.1 µM (inactive) |
| O=C(CNC(=O)c1ccccc1F)NNC(=O)c1ccccc1O | > 94.1 µM (inactive) |
| COc1ccc(NC(=O)NNC(=O)c2cc3ccccc3cc2O)cc1 | > 94.1 µM (inactive) |
| CNC(=S)NNC(=O)c1cccn(Cc2cccc(C(F)(F)F)c2)c1=O | > 94.1 µM (inactive) |
| Nc1ccc2nc3c(=O)[nH]c(=S)[nH]c3nc2c1 | 3.74 µM |
| O=c1c2ccccc2nc(COc2ccccc2)n1/N=C/c1cc([N+](=O)[O-])ccc1O | > 94.1 µM (inactive) |
| Cc1cc(C(=O)N/N=C/c2cc(Br)cc([N+](=O)[O-])c2O)c2ccccc2n1 | > 94.1 µM (inactive) |
| O=[N+]([O-])c1cc(Br)c(O)c(/C=N/Nc2nnnn2-c2cccc3ccccc23)c1 | > 94.1 µM (inactive) |
| COc1cccc(OCC(=O)NNC(=O)c2ccc3ccccc3c2O)c1 | > 94.1 µM (inactive) |
| COc1ccccc1C(=O)NNC(=O)c1ccc2ccccc2c1O | > 94.2 µM (inactive) |
| Cc1ccccc1C(=O)Nc1cccc(C(=O)N/N=C/c2cc(Cl)cc([N+](=O)[O-])c2O)c1 | > 94.1 µM (inactive) |
| C=CCNC(=S)NNC(=O)c1cccn(Cc2cccc(Cl)c2)c1=O | > 94.1 µM (inactive) |
| O=C(Cc1nnc(NC(=O)c2ccccc2)s1)N/N=C\c1ccc(O)c(O)c1 | > 94.1 µM (inactive) |
| O=C(O)c1ccccc1NS(=O)(=O)c1ccc(N/N=C/c2ccc(O)c(O)c2)c([N+](=O)[O-])c1 | inactive |
| Cc1ccc2nc(-c3ccc(O)c(O)c3)cn2c1 | > 94.1 µM (inactive) |
| O=C(N/N=C/c1c(O)n(Cc2ccco2)c(=O)[nH]c1=O)c1ccccc1 | > 94.2 µM (inactive) |
| COc1cc([N+](=O)[O-])cc(/C=N/NC(=O)c2cc(C)nc3ccccc23)c1O | > 94.1 µM (inactive) |
| Cc1ccc(C(=O)NNC(=O)c2cc3ccccc3cc2O)cc1 | > 94.1 µM (inactive) |
| O=C(NNC(=O)c1ccccc1F)c1cccc(-n2cccc2)c1 | > 94 µM (inactive) |
| O=C(Cc1ccccc1)NNC(=S)NC(=O)c1cccnc1 | > 94.1 µM (inactive) |

| Compound | IC50 |
| --- | --- |
| Oc1ccc(/C=N/N=C/c2ccc(O)c(O)c2)cc1O | 2.24 µM |
| O=c1c(CO)cc(CO)cc(CO)c1O | inactive |
| Cc1ccc(O)c(-c2cc(C(=O)Nc3ccc(S(=O)(=O)Nc4nccc(C)n4)cc3)[nH]n2)c1 | > 94.1 µM (inactive) |
| O=C1COc2ccc(C(=O)COC(=O)/C=C/c3ccc(Br)o3)cc2N1 | > 94.1 µM (inactive) |
| Cc1c(C(=O)NNC(=O)c2ccccc2O)oc2ccccc12 | > 94 µM (inactive) |
| Cc1ccc(S(=O)(=O)N2CCC(C(=O)NNC(=O)c3ccccc3O)CC2)cc1C | > 94.1 µM (inactive) |
| COc1ccc(NC(=O)CSc2sc3c(O)cc(=O)[nH]c3c2C#N)c(OC)c1 | > 94.1 µM (inactive) |
| COc1ccccc1NC(=O)NNC(=O)c1cc2ccccc2cc1O | > 94.1 µM (inactive) |
| Cc1cc([N+](=O)[O-])cc(/C=N\NC(=O)C2COc3ccccc3O2)c1O (centres undefined) | > 94.2 µM (inactive) |
| O=C(Cc1ccccc1)N/N=C/c1cc(Br)cc(Br)c1O | > 94.1 µM (inactive) |
| Oc1ccc(/C=N/Nc2ncnc3c2ncn3Cc2ccccc2)cc1O | > 94.1 µM (inactive) |
| CCOC(=O)Cn1c(=NC(=O)c2cc(-c3cccs3)nc3ccccc23)sc2cc(S(N)(=O)=O)ccc21 | > 94.1 µM (inactive) |
| COc1cccc(C(=O)NNC(=O)c2ccc3ccccc3c2O)c1 | > 94.1 µM (inactive) |
| O=C1NC(=S)S/C1=C\C=C\c1ccc([N+](=O)[O-])o1 | > 94.1 µM (inactive) |
| Cc1ccc(/C=C2\SC(=S)N(CCCC(=O)NNC(=O)c3ccccc3O)C2=O)cc1 | > 94.1 µM (inactive) |
| COc1ccc(-c2cnnn2-c2ccc(NC(=O)c3ccc(S(=O)(=O)N4CCCCC4)cc3)cc2)cc1OC | inactive |
| CCn1c(SCC(=O)c2ccc(O)c(O)c2)nnc1-c1ccccc1OC | > 94.1 µM (inactive) |
| O=C(N/N=C/c1cc([N+](=O)[O-])cc([N+](=O)[O-])c1O)/C(=C\c1cccs1)NC(=O)c1ccccc1 | > 94.1 µM (inactive) |
| COCCNC(=O)Nc1ccc2nc(-c3ccco3)c(-c3ccco3)nc2c1 | > 94.1 µM (inactive) |
| COC(=O)c1cc(O)c(O)c(O)c1 | > 94.3 µM (inactive) |
| O=C1C(=Cc2cn(-c3ccccc3)nc2-c2ccc(OCc3ccccc3)cc2)SC(=S)N1CCS(=O)(=O)O | > 94.2 µM (inactive) |
| COc1ccc(C(=O)C=CNNC(=O)c2ccc(Cl)cc2)cc1 | > 94.1 µM (inactive) |
| CCCCCC(=O)NC(=S)NC1C2CC3CC(C2)CC1C3 (centres undefined) | > 94.1 µM (inactive) |
| CCOc1ccc(Nc2ccc(N)c(S(=O)(=O)O)c2)cc1 | > 94.1 µM (inactive) |

| Compound | IC50 |
| --- | --- |
| O=c1c2c(-c3ccc(Cl)cc3)csc2ncn1/N=C/c1cccc([N+](=O)[O-])c1O | > 94.1 µM (inactive) |
| CCOc1ccc(NC(=O)NNC(=O)c2ccc3ccccc3c2O)cc1 | > 94.1 µM (inactive) |
| C=CCn1c(O)c(N=NC(=O)CNC(=O)/C=C/c2ccco2)c2ccccc21 | > 94.1 µM (inactive) |
| CCOC(=O)C1=C(CC)Nc2ccccc2N=C1NC(=O)Nc1ccc(Cl)c(Cl)c1 | inactive |
| Cc1[nH]n(-c2ccccc2)c(=O)c1N=Nc1ccccc1O | > 94.1 µM (inactive) |
| O=C(N/N=C/c1sc(=O)[nH]c1-[n+]1ccc2ccccc2c1)c1ccccc1[O-] | > 94.1 µM (inactive) |
| CCc1ccc(NC(=O)NNC(=O)c2ccc3ccccc3c2O)cc1 | > 94.1 µM (inactive) |
| O=c1oc2ccccc2c2oc3cc(O)c(O)cc3c12 | > 94.2 µM (inactive) |
| Nc1ccc([N+](=O)[O-])cc1C(=O)NNC(=O)c1ccco1 | > 94.1 µM (inactive) |
| O=Nc1[nH]c(=O)c(/C=C(\O)c2ccccc2)nc1NO | > 94.2 µM (inactive) |
| Oc1ccc(C[C@H]2NCCc3cc(O)c(O)cc32)cc1O | > 94.1 µM (inactive) |
| O=C(N/N=C/c1cc(Cl)cc([N+](=O)[O-])c1O)c1cccc(S(=O)(=O)N2CCOCC2)c1 | > 94.1 µM (inactive) |
| COC(=O)Nc1ccc(S(=O)(=O)NNC(=O)c2c(O)c3ccccc3n(C)c2=O)cc1 | > 94.1 µM (inactive) |
| O=c1c(O)cccc2cc(O)c(O)c(O)c12 | 4.39 µM |
| Cc1ccccc1C(=O)NNC(=S)NC(=O)c1cccnc1 | > 94.1 µM (inactive) |
| O=C(NC(=S)NNC(=O)c1cccs1)c1ccccc1 | > 94.1 µM (inactive) |
| CC(=O)NNC(=S)NC(=O)c1ccc(C)cc1 | > 94 µM (inactive) |
| CC(C)(C)c1ccc(C(=O)NCC(=O)NNC(=O)c2ccccc2O)cc1 | > 94.1 µM (inactive) |
| O=C(NNC(=O)c1c(O)c2ccccc2[nH]c1=O)c1ccccc1 | > 94.1 µM (inactive) |
| Cn1c(=O)c(C(=O)NNC(=O)c2ccccc2F)c(O)c2ccccc21 | > 94.1 µM (inactive) |
| N#C/C(=C\c1ccc(O)c(O)c1)C(=O)Nc1cccc2ncccc12 | 8.85 µM |
| Cc1ccc(NC(=O)NNC(=O)c2cc3ccccc3cc2O)cc1 | > 94.1 µM (inactive) |
